Laboratory results: PubChem BioAssay (NCI)
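Cells were grown in 96-well plates and exposed to each compound for 48 hours at five concentrations; endpoints were interpolated linearly between bracketing concentrations, or set to the highest concentration if not reached. Abbreviation: GI50, concentration required for 50% inhibition of growth. Definition used: TGI = concentration required for complete inhibition of growth.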

How the values were obtained:
Assay in all cases: inhibition of tumour cell growth, NCI panel, 48 h
[1] = system: 786-0 renal
[2] = system: A498 renal
[3] = system: A549 NSCLC
[4] = system: ACHN renal
[5] = system: CAKI-1 renal
[6] = system: CCRF-CEM leukemia
[7] = system: COLO 205 colon
[8] = system: DU-145 prostate
[9] = system: EKVX NSCLC
[10] = system: HCT-116 colon
[11] = system: HCT-15 colon
[12] = system: HL-60(TB) leukemia
[13] = system: HOP-62 NSCLC
[14] = system: HOP-92 NSCLC
[15] = system: HS 578T breast
[16] = system: IGROV1 ovarian
[17] = system: K-562 leukemia
[18] = system: KM12 colon
[19] = system: LOX IMVI melanoma
[20] = system: M14 melanoma
[21] = system: MALME-3M melanoma
[22] = system: MCF7 breast
[23] = system: MDA-MB-231 breast
[24] = system: MDA-MB-435
[25] = system: MOLT-4 leukemia
[26] = system: NCI-H226 lung
[27] = system: NCI-H23 lung
[28] = system: NCI-H460 lung
[29] = system: NCI-H522 lung
[30] = system: NCI/ADR-RES ovarian
[31] = system: OVCAR-3 ovarian
[32] = system: OVCAR-4 ovarian
[33] = system: OVCAR-5 ovarian
[34] = system: OVCAR-8 ovarian
[35] = system: PC-3 prostate
[36] = system: RPMI-8226 leukemia
[37] = system: RXF 393 renal
[38] = system: SF-268 CNS
[39] = system: SF-295 CNS
[40] = system: SF-539 CNS
[41] = system: SK-MEL-2 melanoma
[42] = system: SK-MEL-28 melanoma
[43] = system: SK-MEL-5 melanoma
[44] = system: SK-OV-3 ovarian
[45] = system: SN12C renal
[46] = system: SNB-19 CNS
[47] = system: SNB-75 CNS
[48] = system: SW-620 colon
[49] = system: TK-10 renal
[50] = system: U251 CNS
[51] = system: UACC-257 melanoma
[52] = system: UACC-62 melanoma
[53] = system: UO-31 renal
[54] = system: HCC-2998 colon
[55] = system: SR leukemia
[56] = system: HT29 colon
[57] = system: T-47D breast

## COc1ccc(-c2nnc(N3CCN(C(=O)CN4CCN(c5ccccc5)CC4)CC3)nc2-c2ccc(OC)cc2)cc1
[1]
  GI50: 5370 nM
  TGI: 29.3 µM
[2]
  GI50: 3000 nM
  TGI: 19.1 µM
[3]
  GI50: 4850 nM
  TGI: > 100000 nM
[4]
  GI50: 3920 nM
  TGI: 21.7 µM
[5]
  GI50: 6.23 µM
  TGI: > 100 µM
[6]
  GI50: 5190 nM
  TGI: > 100 µM
[7]
  GI50: 2570 nM
  TGI: 57.2 µM
[8]
  GI50: 13.4 µM
  TGI: > 100 µM
[9]
  GI50: 4.91 µM
  TGI: > 100 µM
[10]
  GI50: 3190 nM
  TGI: > 100000 nM
[11]
  GI50: 3130 nM
  TGI: > 100 µM
[12]
  GI50: 1890 nM
  TGI: 5.56 µM
[13]
  GI50: 13 µM
  TGI: 42.7 µM
[14]
  GI50: 3490 nM
  TGI: 24000 nM
[15]
  GI50: 5150 nM
  TGI: 71.5 µM
[16]
  GI50: 11.1 µM
  TGI: > 100000 nM
[17]
  GI50: 2530 nM
  TGI: > 100 µM
[18]
  GI50: 3670 nM
  TGI: > 100 µM
[19]
  GI50: 5.78 µM
  TGI: > 100 µM
[20]
  GI50: 4.84 µM
  TGI: > 100 µM
[21]
  GI50: 2290 nM
  TGI: > 100 µM
[22]
  GI50: 2800 nM
  TGI: > 100 µM
[23]
  GI50: 13.4 µM
  TGI: > 100000 nM
[24]
  GI50: 6.09 µM
  TGI: > 100 µM
[25]
  GI50: 2040 nM
  TGI: 6.64 µM
[26]
  GI50: 3760 nM
  TGI: > 100 µM
[27]
  GI50: 6.92 µM
  TGI: > 100000 nM
[28]
  GI50: 4.2 µM
  TGI: > 100000 nM
[29]
  GI50: 7.44 µM
  TGI: > 100 µM
[30]
  GI50: 5.15 µM
  TGI: > 100 µM
[31]
  GI50: 3390 nM
  TGI: > 100000 nM
[32]
  GI50: 6.36 µM
  TGI: > 100000 nM
[33]
  GI50: > 100000 nM
  TGI: > 100 µM
[34]
  GI50: 7.15 µM
  TGI: > 100 µM
[35]
  GI50: 3830 nM
  TGI: > 100 µM
[36]
  GI50: 2060 nM
  TGI: 5.16 µM
[37]
  GI50: 3.36 µM
  TGI: 22.4 µM
[38]
  GI50: 83.4 µM
  TGI: > 100 µM
[39]
  GI50: 5.83 µM
  TGI: 47.7 µM
[40]
  GI50: 6.03 µM
  TGI: 35.3 µM
[41]
  GI50: 9.13 µM
  TGI: 55.8 µM
[42]
  GI50: 14.3 µM
  TGI: > 100 µM
[43]
  GI50: 2990 nM
  TGI: > 100 µM
[44]
  GI50: 14.5 µM
  TGI: 70.7 µM
[45]
  GI50: 2850 nM
  TGI: > 100 µM
[46]
  GI50: 12.8 µM
  TGI: 77.3 µM
[47]
  GI50: 14.4 µM
  TGI: 48.7 µM
[48]
  GI50: 5.26 µM
  TGI: > 100000 nM
[49]
  GI50: 3520 nM
  TGI: 47.6 µM
[50]
  GI50: 4.14 µM
  TGI: > 100000 nM
[51]
  GI50: 6.17 µM
  TGI: > 100000 nM
[52]
  GI50: 6.48 µM
  TGI: 40 µM
[53]
  GI50: 1910 nM
  TGI: > 100 µM

## C(=C\c1ccc(-c2cn3cc(/C=C/C=N/NC4=NCCN4)ccc3n2)cc1)/C=N/NC1=NCCN1
[3]
  TGI: 1980 nM
[4]
  TGI: 3.01 µM
[5]
  TGI: 5.61 µM
[6]
  TGI: 4.18 µM
[8]
  TGI: 5.44 µM
[54]
  TGI: 2600 nM
[11]
  TGI: > 100 µM
[14]
  TGI: 2510 nM
[18]
  TGI: 4.89 µM
[24]
  TGI: 3.54 µM
[25]
  TGI: 5.22 µM
[26]
  TGI: 3.27 µM
[28]
  TGI: 1920 nM
[30]
  TGI: > 44.9 µM
[34]
  TGI: 2.67 µM
[35]
  TGI: 3.97 µM
[37]
  TGI: 4.79 µM
[41]
  TGI: 4.51 µM
[55]
  TGI: 3.54 µM
[48]
  TGI: 770 nM
[49]
  TGI: 65.4 µM
[50]
  TGI: 2260 nM
[53]
  TGI: 19.8 µM

## COc1cccc2c1C(=O)c1c(O)c3c(c(O)c1C2=O)C[C@@](O)(/C(C)=N/NC(=O)c1ccc(Cl)cc1)C[C@@H]3OC1CC(N)C(O)C(C)O1 (stereo partly specified)
[1]
  GI50: 249 nM
  TGI: 1.69 µM
[2]
  GI50: 129 nM
  TGI: 0.625 µM
[3]
  GI50: 124 nM
  TGI: 1850 nM
[4]
  GI50: 181 nM
  TGI: 1.43 µM
[5]
  GI50: 0.708 µM
  TGI: 5.98 µM
[6]
  GI50: 90.3 nM
  TGI: 2.32 µM
[8]
  GI50: 0.271 µM
  TGI: 13.5 µM
[10]
  GI50: 147 nM
  TGI: 1490 nM
[11]
  GI50: 1020 nM
  TGI: 12.6 µM
[13]
  GI50: 0.215 µM
  TGI: 1.94 µM
[14]
  GI50: 192 nM
  TGI: 751 nM
[15]
  GI50: 369 nM
  TGI: 2.52 µM
[56]
  GI50: 232 nM
  TGI: 1410 nM
[16]
  GI50: 0.138 µM
  TGI: 2740 nM
[18]
  GI50: 326 nM
  TGI: 2.44 µM
[23]
  GI50: 0.603 µM
  TGI: 2770 nM
[25]
  GI50: 54.5 nM
  TGI: 3.31 µM
[26]
  GI50: 187 nM
  TGI: 0.897 µM
[27]
  GI50: 0.194 µM
  TGI: 1120 nM
[30]
  GI50: 4.6 µM
  TGI: 44.3 µM
[31]
  GI50: 395 nM
  TGI: 2400 nM
[32]
  GI50: 0.348 µM
  TGI: 2310 nM
[33]
  GI50: 379 nM
  TGI: 3.81 µM
[34]
  GI50: 0.268 µM
  TGI: 3.02 µM
[35]
  GI50: 293 nM
  TGI: 1.6 µM
[36]
  GI50: 216 nM
  TGI: 1.47 µM
[39]
  GI50: 0.236 µM
  TGI: 2.2 µM
[40]
  GI50: 0.21 µM
  TGI: 0.747 µM
[44]
  GI50: 0.481 µM
  TGI: 13.8 µM
[45]
  GI50: 156 nM
  TGI: 3 µM
[46]
  GI50: 0.162 µM
  TGI: 1.9 µM
[47]
  GI50: 0.102 µM
  TGI: 0.552 µM
[57]
  GI50: 163 nM
  TGI: 1790 nM
[49]
  GI50: 178 nM
  TGI: 0.723 µM
[51]
  GI50: 0.188 µM
  TGI: 867 nM
[53]
  GI50: 488 nM
  TGI: 4.55 µM
